Key:
U2OS [1] = assay: Cytotoxicity against human U2OS cells; assay type: functional, cell-based
U2OS [2] = assay: Inhibition of autophagy in human U2OS cells expressing tfLC3 incubated for 3 hrs by fluorescent microscopy; assay type: functional, cell-based
[3] = Inhibition of starvation induced autophagy in human MCF7 cells expressing eGFP-LC3; assay type: functional, cell-based
[4] = biological target: Phosphatidylinositol 3-kinase catalytic subunit type 3 (Homo sapiens, UniProt Q8NEB9); assay: Inhibition of VPS34 (unknown origin)
Phosphatidylinositol 3-kinase catalytic subunit type 3, sequence (Q8NEB9 whole entry): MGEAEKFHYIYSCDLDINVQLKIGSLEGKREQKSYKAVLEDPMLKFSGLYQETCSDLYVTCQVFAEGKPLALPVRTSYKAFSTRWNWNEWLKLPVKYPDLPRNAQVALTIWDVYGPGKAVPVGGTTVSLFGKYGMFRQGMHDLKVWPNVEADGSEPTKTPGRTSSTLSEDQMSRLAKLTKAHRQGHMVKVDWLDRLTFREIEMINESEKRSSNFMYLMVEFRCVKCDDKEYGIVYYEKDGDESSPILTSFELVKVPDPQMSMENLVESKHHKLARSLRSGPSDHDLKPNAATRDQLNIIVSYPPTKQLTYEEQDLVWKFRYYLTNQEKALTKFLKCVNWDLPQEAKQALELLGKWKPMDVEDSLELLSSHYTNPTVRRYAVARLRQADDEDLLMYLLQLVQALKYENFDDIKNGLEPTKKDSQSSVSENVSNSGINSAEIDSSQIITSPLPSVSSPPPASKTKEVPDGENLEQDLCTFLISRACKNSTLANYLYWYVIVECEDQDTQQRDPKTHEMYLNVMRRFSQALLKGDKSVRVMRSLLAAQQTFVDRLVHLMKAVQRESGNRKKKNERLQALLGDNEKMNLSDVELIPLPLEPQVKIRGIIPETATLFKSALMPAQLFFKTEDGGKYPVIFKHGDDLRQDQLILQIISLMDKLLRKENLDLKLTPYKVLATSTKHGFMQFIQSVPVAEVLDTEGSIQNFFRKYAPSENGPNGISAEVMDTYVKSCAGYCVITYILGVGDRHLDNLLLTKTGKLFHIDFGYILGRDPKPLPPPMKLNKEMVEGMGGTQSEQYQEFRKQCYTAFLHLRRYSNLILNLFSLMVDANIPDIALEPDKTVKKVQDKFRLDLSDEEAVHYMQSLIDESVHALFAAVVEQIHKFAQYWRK

[5] = Inhibition of rapamycin induced autophagy in human MCF7 cells expressing eGFP-LC3; assay type: functional, cell-based
[6] = biological target: T1, Serine/threonine-protein kinase ULK1 (Homo sapiens, UniProt O75385); assay: Inhibition of ULK1 (unknown origin)
T1 sequence (O75385 whole entry): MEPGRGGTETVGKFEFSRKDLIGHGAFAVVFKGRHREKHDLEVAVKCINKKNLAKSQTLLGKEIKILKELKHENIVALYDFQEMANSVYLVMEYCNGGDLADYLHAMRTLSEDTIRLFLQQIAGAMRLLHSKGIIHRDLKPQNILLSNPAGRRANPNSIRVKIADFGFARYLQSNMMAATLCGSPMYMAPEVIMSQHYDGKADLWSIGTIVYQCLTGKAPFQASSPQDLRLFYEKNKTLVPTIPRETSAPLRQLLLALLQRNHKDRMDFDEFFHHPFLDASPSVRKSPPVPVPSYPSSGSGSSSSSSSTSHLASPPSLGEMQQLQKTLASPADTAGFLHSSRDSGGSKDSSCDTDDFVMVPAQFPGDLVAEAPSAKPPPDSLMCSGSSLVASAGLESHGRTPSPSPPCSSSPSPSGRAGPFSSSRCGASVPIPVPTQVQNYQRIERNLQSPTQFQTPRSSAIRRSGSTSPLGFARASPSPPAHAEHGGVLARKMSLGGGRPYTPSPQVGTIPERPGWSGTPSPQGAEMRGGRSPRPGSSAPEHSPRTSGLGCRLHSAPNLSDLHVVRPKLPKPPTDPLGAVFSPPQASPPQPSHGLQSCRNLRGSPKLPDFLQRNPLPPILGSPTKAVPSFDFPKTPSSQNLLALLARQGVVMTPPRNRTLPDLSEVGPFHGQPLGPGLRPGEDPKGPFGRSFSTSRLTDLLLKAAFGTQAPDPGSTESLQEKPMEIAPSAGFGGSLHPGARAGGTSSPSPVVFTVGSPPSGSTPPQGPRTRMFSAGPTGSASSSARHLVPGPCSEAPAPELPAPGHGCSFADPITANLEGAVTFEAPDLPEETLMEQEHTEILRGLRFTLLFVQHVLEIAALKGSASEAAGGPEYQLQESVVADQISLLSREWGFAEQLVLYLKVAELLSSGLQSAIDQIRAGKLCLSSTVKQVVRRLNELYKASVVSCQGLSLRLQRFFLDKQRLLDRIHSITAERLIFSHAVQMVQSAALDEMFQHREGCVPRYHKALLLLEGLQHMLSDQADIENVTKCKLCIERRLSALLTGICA

[7] = biological target: T2, Serine/threonine-protein kinase ULK2 (Homo sapiens, UniProt Q8IYT8); assay: Inhibition of ULK2 (unknown origin)
T2 sequence (Q8IYT8 whole entry): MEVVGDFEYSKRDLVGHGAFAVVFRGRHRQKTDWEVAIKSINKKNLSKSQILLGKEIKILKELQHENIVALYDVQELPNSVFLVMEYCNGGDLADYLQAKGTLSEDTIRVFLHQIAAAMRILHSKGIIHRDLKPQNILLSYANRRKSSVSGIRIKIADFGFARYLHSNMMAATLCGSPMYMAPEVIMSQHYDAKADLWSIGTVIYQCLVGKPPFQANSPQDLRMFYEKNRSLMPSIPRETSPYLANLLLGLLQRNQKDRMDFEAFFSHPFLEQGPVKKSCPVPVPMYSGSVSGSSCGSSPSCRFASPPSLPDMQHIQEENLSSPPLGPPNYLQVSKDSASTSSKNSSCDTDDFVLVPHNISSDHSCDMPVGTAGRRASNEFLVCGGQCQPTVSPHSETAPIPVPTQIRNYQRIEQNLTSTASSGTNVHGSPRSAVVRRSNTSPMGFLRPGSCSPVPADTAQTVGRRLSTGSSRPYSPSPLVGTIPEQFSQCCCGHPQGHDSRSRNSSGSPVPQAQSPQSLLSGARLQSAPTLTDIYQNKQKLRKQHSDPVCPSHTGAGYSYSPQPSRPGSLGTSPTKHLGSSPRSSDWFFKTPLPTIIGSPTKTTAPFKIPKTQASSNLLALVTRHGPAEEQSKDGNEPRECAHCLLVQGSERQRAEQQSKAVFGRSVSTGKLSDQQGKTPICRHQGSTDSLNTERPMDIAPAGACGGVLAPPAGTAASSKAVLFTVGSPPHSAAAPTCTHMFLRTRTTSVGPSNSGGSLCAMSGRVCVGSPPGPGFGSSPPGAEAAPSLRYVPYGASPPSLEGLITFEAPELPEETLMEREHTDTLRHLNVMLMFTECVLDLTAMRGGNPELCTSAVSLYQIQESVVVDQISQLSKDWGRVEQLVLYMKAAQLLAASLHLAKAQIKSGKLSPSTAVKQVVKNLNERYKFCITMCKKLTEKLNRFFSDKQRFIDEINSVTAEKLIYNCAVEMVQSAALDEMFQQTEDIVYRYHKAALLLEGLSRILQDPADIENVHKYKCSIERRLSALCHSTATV

Compound | IC50 [3] [µM] | IC50 [4] [µM] | other results
COc1ccc2nc3cc(Cl)ccc3c(NCCCCN3CCN(C)CC3)c2c1 | – | – | IC50 (U2OS [1]): 0.7 µM; EC50 (U2OS [2]): 0.1 µM
O=C(C1CCC1)N1CCc2cc(Br)c(S(=O)(=O)Nc3ccc(Cl)c(C(F)(F)F)c3)cc21 | 3.3 | – | –
COC[C@H]1OC(=O)c2coc3c2[C@@]1(C)C1=C(C3=O)[C@@H]2CC[C@H](O)[C@@]2(C)C[C@H]1OC(C)=O | – | 0.0005 | –
CCCN/C=C1\C(=O)O[C@H](COC)[C@@]2(C)C1=C(O)C(=O)C1=C2[C@H](OC(C)=O)C[C@]2(C)C(=O)CC[C@@H]12 | – | ≥ 0.5 | –
Cc1cc(Nc2cc(Cl)nc(Oc3ccc([N+](=O)[O-])cc3)n2)n[nH]1 | 0.09 | – | IC50 [5]: 0.04 µM
COC[C@H]1OC(=O)C2=CCOC3=C2[C@@]1(C)C1=C(C3=O)[C@@H]2CCC(=O)[C@@]2(C)C[C@H]1OC(C)=O | – | 0.271 | –
Cc1cc(Nc2cc(C(F)(F)F)nc(Nc3ccc([N+](=O)[O-])cc3)n2)n[nH]1 | 0.34 | 0.31 | IC50 [5]: 0.44 µM
O=C(C1CC1)N1CCc2cc(Br)c(S(=O)(=O)Nc3cccc(C(F)(F)F)c3)cc21 | 0.56 | – | –
Cc1cc(Nc2cc(Cl)nc(Oc3ccc([N+](=O)[O-])cc3)n2)no1 | 0.17 | 0.02 | IC50 [5]: 0.12 µM
COC[C@H]1OC(=O)c2coc3c2[C@@]1(C)C1=C(C3=O)[C@@H]2C[C@@H](OC(C)=O)C(OC(C)=O)[C@@]2(C)C[C@H]1OC(C)=O (some centres undefined) | – | 0.309 | –
O=C(CC1CC1)N1CCc2ccc(S(=O)(=O)Nc3ccc(Cl)c(C(F)(F)F)c3)cc21 | 6.6 | – | –
COC[C@H]1OC(=O)c2c(C)oc3c2[C@@]1(C)C1=C(C3=O)[C@@H]2CCC(=O)[C@@]2(C)C[C@H]1OC(C)=O | – | ≥ 0.5 | –
Cc1cc(Nc2cc(N(C)C)nc(Oc3ccc([N+](=O)[O-])cc3)n2)n[nH]1 | 0.45 | 0.285 | IC50 [5]: 0.28 µM
COC[C@H]1OC(=O)/C(=C\N)C2=C(O)C(=O)C3=C([C@H](OC(C)=O)C[C@]4(C)C(=O)CC[C@@H]34)[C@]21C | – | ≥ 0.5 | –
O=C(CC1CC1)N1CCc2cc(Br)c(S(=O)(=O)Nc3ccc(Cl)c(C(F)(F)F)c3)cc21 | 4.5 | – | –
COC[C@H]1OC(=O)c2coc3c2[C@@]1(C)C1=C(C3=O)[C@@H]2C[C@@H](Br)C(OC(C)=O)[C@@]2(C)C[C@H]1OC(C)=O (some centres undefined) | – | 0.077 | –
O=[N+]([O-])c1ccc(Oc2nc(Cl)cc(Nc3ccccc3)n2)cc1 | 2.13 | – | –
Cc1cc(Nc2cc(C)[nH]n2)nc(Oc2ccc([N+](=O)[O-])cc2)n1 | 0.07 | 0.023 | IC50 [5]: 0.04 µM
CC(C)(C)c1cc(Nc2cc(Cl)nc(Oc3ccc([N+](=O)[O-])cc3)n2)n[nH]1 | 1.4 | 0.627 | IC50 [5]: 2 µM
Cc1ccc(NS(=O)(=O)c2cc3c(cc2Br)CCN3C(=O)C2CC2)cc1C(F)(F)F | 0.81 | – | –
CCN/C=C1\C(=O)O[C@H](COC)[C@@]2(C)C1=C(O)C(=O)C1=C2[C@H](OC(C)=O)C[C@]2(C)C(=O)CC[C@@H]12 | – | ≥ 0.5 | –
COC[C@H]1OC(=O)c2coc3c2[C@@]1(C)C1=C(C3=O)[C@@H]2CCC(OC(C)=O)[C@@]2(C)C[C@H]1OC(C)=O (some centres undefined) | – | 0.059 | –
O=C(C1CC1)N1CCc2cc(Br)c(S(=O)(=O)Nc3cc(C(F)(F)F)ccc3Cl)cc21 | 1.1 | – | –
CC(C)[C@H](NC(=O)c1cc(C2C=C3N=C(c4ccc(OCCN5CCCCC5)cc4)C=CN3N2)cs1)C(F)(F)F (some centres undefined) | – | – | IC50 [6]: 0.0016 µM; IC50 [7]: 0.0026 µM

Compound | IC50 [3] [µM] | IC50 [4] [µM] | other results
Cc1cc(Nc2cc(N3CCN(C)CC3)nc(Oc3ccc([N+](=O)[O-])cc3)n2)n[nH]1 | 0.39 | 0.146 | –
O=[N+]([O-])c1ccc(Oc2nc(Cl)cc(Nc3cc(C4CC4)[nH]n3)n2)cc1 | 0.13 | 0.036 | IC50 [5]: 0.1 µM
COC[C@H]1OC(=O)c2coc3c2[C@@]1(C)C1=CC[C@]2(C)C(=O)CC[C@H]2C1C3=O (some centres undefined) | – | 0.054 | –
COC[C@H]1OC(=O)c2coc3c2[C@@]1(C)C1=C(C3=O)[C@@H]2CCC(=O)[C@@]2(C)C[C@H]1OC(C)=O [WORTMANNIN] | – | 0.0042 | –
COC[C@H]1OC(=O)c2coc3c2[C@@]1(C)C1=C(C3=O)[C@@H]2C[C@@H](O)C(OC(C)=O)[C@@]2(C)C[C@H]1OC(C)=O (some centres undefined) | – | 0.153 | –
COC[C@H]1OC(=O)c2coc3c2[C@@]1(C)C1=C(C3=O)[C@@H]2CCC(=O)[C@@]2(C)CC1 | – | 0.017 | –
O=C(N[C@@H](C1CC1)C(F)(F)F)c1cc(C2C=C3N=C(c4ccc(F)cc4)C=CN3N2)cs1 (some centres undefined) | – | – | IC50 [6]: 0.0083 µM; IC50 [7]: 0.03 µM
O=C(C1CC1)N1CCc2cc(Br)c(S(=O)(=O)Nc3ccc(Cl)c(C(F)(F)F)c3)cc21 | 0.14 | – | –
COC[C@H]1OC(=O)C23CC2COC2=C3[C@@]1(C)C1=C(C2=O)[C@@H]2CCC(=O)[C@@]2(C)C[C@H]1OC(C)=O (some centres undefined) | – | ≥ 0.5 | –
O=C(C1CC1)N1CCc2cc(Br)c(S(=O)(=O)Nc3cc(Cl)ccc3C(F)(F)F)cc21 | 2.4 | – | –
CN1CCN(CCNc2c3ccccc3nc3cc(Cl)ccc23)CC1 | – | – | IC50 (U2OS [1]): 27 µM; EC50 (U2OS [2]): 5 µM
Clc1cc(Nc2cc[nH]n2)nc(OCc2ccncc2)n1 | 0.38 | 0.11 | IC50 [5]: 0.28 µM
Cc1cc(Nc2cc(Cl)nc(OCc3ccc([N+](=O)[O-])cc3)n2)n[nH]1 | 0.2 | 0.214 | IC50 [5]: 0.47 µM
COC(=O)c1coc2c(O)c3c(c(C)c12)C=C[C@]1(C)C(=O)CC[C@@H]31 | – | 4.6 | –
CCN(CC)CCCC(C)Nc1c2ccc(Cl)cc2nc2ccc(OC)cc12 (centres undefined) [QUINACRINE] | – | – | IC50 (U2OS [1]): 2.5 µM; EC50 (U2OS [2]): 0.25 µM
Cc1cc(Nc2cc(C(F)(F)F)nc(Oc3ccc([N+](=O)[O-])cc3)n2)n[nH]1 | 0.19 | 0.078 | IC50 [5]: 0.07 µM
CCCCN/C=C1\C(=O)O[C@H](COC)[C@@]2(C)C1=C(O)C(=O)C1=C2[C@H](OC(C)=O)C[C@]2(C)C(=O)CC[C@@H]12 | – | 0.052 | –
O=C(C1CC1)N1CCc2cc(Br)c(S(=O)(=O)Nc3cc(C(F)(F)F)ccc3F)cc21 | 1.4 | – | –
CC(C)C(=O)N1CCc2cc(Br)c(S(=O)(=O)Nc3ccc(Cl)c(C(F)(F)F)c3)cc21 | 3 | – | –
Cc1cc(Nc2cc(N3CCOCC3)nc(Oc3ccc([N+](=O)[O-])cc3)n2)n[nH]1 | 0.23 | 0.121 | IC50 [5]: 0.16 µM
CCN(/C=C1\C(=O)O[C@H](COC)[C@@]2(C)C1=C(O)C(=O)C1=C2[C@H](OC(C)=O)C[C@]2(C)C(=O)CC[C@@H]12)CC | – | 0.08 | –
NS(=O)(=O)c1ccc(Oc2nc(Cl)cc(Nc3cc[nH]n3)n2)cc1 | 0.45 | 0.061 | IC50 [5]: 0.42 µM
CN/C=C1\C(=O)O[C@H](COC)[C@@]2(C)C1=C(O)C(=O)C1=C2[C@H](OC(C)=O)C[C@]2(C)C(=O)CC[C@@H]12 | – | ≥ 0.5 | –
N#Cc1ccc(Oc2nc(Cl)cc(Nc3cc[nH]n3)n2)cc1 | 0.13 | 0.049 | IC50 [5]: 0.09 µM
